± gives the expanded uncertainty stated by the source.
Legend:
[1] = Crystal; DTA
[2] = Molar enthalpy of transition or fusion; settings: Crystal; DSC

SMILES: Cc1nc2n(c(=O)c1CCN1CCC(c3noc4cc(F)ccc34)CC1)CCCC2 [risperidone]
- Normal melting temperature [1]: 170.52 ± 1.1 °C
- Molar enthalpy of transition or fusion [2]: 10 ± 0.263 kcal/mol
